Measurements published in patent publication US20190358138A1, “A PERSONAL CARE COMPOSITION” (Conopco, Inc., d/b/a UNILEVER, priority 2017, published 2019).
pIC50: −log10 of the molar value.

How the values were obtained:
[1] = tested on: store-operated Ca^2+ entry (SOCE); assay: Store-operated Ca2+ entry (SOCE) in isolated human eccrine sweat glands, thapsigargin-induced, Fura-2 340:380 ratio; type: cell-based; details: for pIC50: half-maximal concentration from dose-response curve, isolated eccrine glands, 1 μM thapsigargin; for inhibition at 10 µM: reduction in 340:380 ratio at maximal inhibitor concentration 10^−5M, as % of control response, read-out: Potency (% inhibition at 10^−5M)
Description: Isolation of Human Eccrine Sweat Glands
Viable human eccrine sweat glands were isolated from samples of human skin (obtained under ethical consent).
Measurement of Intracellular Ca^2+ Concentration
Intracellular [Ca^2+]i was measured in isolated eccrine glands by plating them onto Matrigel coated glass coverslips and loading them with the calcium-sensitive, fluorescent dye Fura-2 by incubation (30-45 minutes, 37° C.) with the membrane-permeant, acetoxymethyl ester form of the dye (Fura-2AM). These coverslips (with dye-loaded glands) were then mounted in a small chamber attached to the stage of an inverted microscope, and the glands superfused (ca. 5 ml minute^−1, 37° C.) with physiological salt solution (PSS; composition (mM): NaCl 130, KCl 5, MgCl2 1, CaCl2 1, HEPES 20, D-Glucose 10, pH 7.4 with NaOH). Changes in [Ca^2+]i were detected using 340/380 nm excitation and 510 nm emission wavelengths, and data expressed as the 340:380 ratio.
Measurement of Store-Operated Ca^2+ Entry (SOCE)
To measure store-operated calcium entry (SOCE), independent of external membrane receptor activation, the following assay protocol was used. First, isolated glands were exposed to 1 μM thapsigargin in Ca^2+-free PSS for 3 minutes. As thapsigargin inhibits the Ca^2+-ATPase uptake pathway in intracellular Ca^2+ stores, this enables Ca^2+ to leak out of the store and subsequently trigger the activation of SOCE. In Ca^2+-free PSS, this process is represented by a very small rise in [Ca^2+]i. Glands were then exposed to 1 μM thapsigargin in Ca^2+-containing PSS for 2 minutes, thereby inducing a rapid increase in [Ca^2+]i via Ca^2+ entry into the cells via the open SOCE pathway. To complete the protocol, thapsigargin is finally removed by washing the glands with Ca^2+ -containing PSS, and allowing the resting [Ca^2+]i level to re-establish itself, and the intracellular Ca^2+ stores to refill. The effectiveness of selected SOCE channel inhibitors were assessed by repeating the above procedure in the presence of the inhibitor (at a chosen concentration) from the time at which thapsigargin was added to release the intracellular Ca^2+ stores, until the cells were finally washed following the Ca^2+ peak initiated by Ca^2+ entry. Dose-response curves were constructed for each inhibitor and the half-maximal concentration (IC50) determined. The potency of each inhibitor was also assessed by expressing the reduction in the 340:380 ratio observed at the maximum concentration (10^−5M) as a % of the control response (i.e. in the absence of inhibitor; see Table 1).

interleukin (IL)-6 = assay: THP-1 in vitro anti-inflammation assay: IL-6 ELISA in supernatant of PMA-differentiated, LPS-treated THP1-XBlue cells; type: cell-based; details: 24 hours, LPS alone 24176
Description: The following procedure was used to test the anti-inflammation efficacy of the actives.
THP1-XBlue™ (Cat No: thpx-sp, InvivoGen) cells were cultured as a suspension in RPMI 1640 medium supplemented with 10% FBS, penicillin (10 U/mL)—streptomycin (10 μg/ML). Cells were differentiated in 24-well plates at the density of 5×10^5 cells/well with 100 nM PMA for 72 hours. Cells were then co-treated with pure E. coli lipopolysaccharides (LPS) and with active. After 24 hours, the supernatants were collected and measured for interleukin (IL)-6 as pro-inflammatory bio-marker using enzyme-linked immunosorbent assay (ELISA).

[2] = 20 μM active co-treated with E. coli LPS

| pIC50 [1] | SMILES | inhibition at 10 µM [1] | Concentration of IL-6 (interleukin (IL)-6; 10 μM active co-treated with E. coli LPS) | Concentration of IL-6 (interleukin (IL)-6; [2]) |
| --- | --- | --- | --- | --- |
| 7.62 | COc1ccc(/C=C/C(=O)C(C)(C)C(=O)/C=C/c2ccc(OC)c(OC)c2)cc1OC [Formula 2] | 99% |  |  |
| 6.86 | COc1ccc(CCC(O)C(C)(C)C(O)CCc2ccc(OC)c(OC)c2)cc1OC (stereo not drawn) [Formula 5, 1,7-bis (3,4-dimethoxyphenyl)-4,4-dimethylheptane-3,5-diol] | 76% | 14880 pg/mL | 9142 pg/mL |
| 7.04 | COc1cc(CCC(O)CC(O)CCc2ccc(O)c(OC)c2)ccc1O (stereo not drawn) [Formula 4, 1,7-bis(4-hydroxy-3-methoxyphenyl) heptane-3,5-diol] | 75.4% |  | 18218 pg/mL |
